Test results as given in patent US12378234B2, “Crystalline polymorphs of a 1-thiazol-2-yl-pyrazole-5-carboxylic acid derivative” (Bantam Pharmaceutical, LLC, priority 2019, dated 2025).
In brackets after ≈: the same amount, converted by molar mass.

Experiments:
Assay type in all cases: physicochemical
[1] = Physical and chemical stability under stressed conditions (HPLC, XRPD); details: 40° C./75% RH for 1 week
Description: Physical and chemical stability evaluation has been performed for crystalline polymorph Form 1 under stressed conditions. In the experiments, about 10 mg of the polymorph was placed into 4 ml glass vials that were stored under 40° C./75% RH for 1 week. HPLC was utilized to evaluate the degradation, and XPRD was used to evaluate the crystalline polymorph.

[2] = Slurry conversion (competitive) experiments for thermodynamic stability relationship; details: slurry of Form 1:Form 5 (1:1) in H2O:acetone (9:1) or H2O:ethanol (3:1), room temperature, 2 or 3 days
Description: To determine the thermodynamic stability relationship between Form 1 and Form 5, slurry conversion experiments were conducted. Specifically, Form 1 sample was added to 1.0 mL H2O:acetone (9:1 v:v) or 0.8 mL of H2O:ethanol (3:1 v:v) at room temperature. After equilibrium for 1 hr, the suspensions were filtered to obtain a saturated solution Form 1. To each saturated solution of Form 1:Form 5 (1:1) was added. After stirring at room temperature for 2 or 3 days, the solids were isolated for XRPD analysis.
To determine the thermodynamic stability relationship between Form 11 and Form 12, slurry conversion experiments were conducted. Specifically, Form 12 (2.5 mg) was added to 1.0 mL of 4% dichloromethane at room temperature. After equilibrium for 1 hour, the suspensions were filtered to obtain a saturated solution Form 12. To the saturated solution of Form 11:Form 12 (1:1) was added. After stirring at room temperature for 30 minutes, the solids were isolated for XRPD analysis. […] The pH of Form 11 solution (2.5 mg in 1 mL of 4% dichloromethane) and Form 12 solution (2.5 mg in 1 mL of 4% dichloromethane) was measured to be 8.25 and 7.98, respectively.

[3] = Solubility of crystalline polymorph in biologically relevant media (water, SGF, FaSSIF, FeSSIF), HPLC of supernatant, pH, XRPD of remaining solids; details: for solubility at 1 h / solubility at 4 h / solubility at 24 h: thermodynamic from solid, 37° C.; for pH: solubility test
Description: The solubility of crystalline polymorph Form 1 was tested in biologically relevant media: water, simulated gastric fluid (SGF), fasted state simulated intestinal fluid (FaSSIF) and fed state simulated intestinal fluid (FeSSIF). For example, the crystalline polymorph was suspended in the solvent with stirring at 400 rpm at 37° C. for 1 h, 4 h and 24 h followed by filtration. The supernatant concentration was measured by HPLC (Mobile phase A: 0.1% NH3 in H2O, Mobile phase B: acetonitrile; flow rate: 0.8 mL/min; injection volume: 5 μL). The remaining solids were tested by XRPD.
The solubility of crystalline polymorph Form 11 was tested in biologically relevant media: water, SGF, FaSSIF, and FeSSIF. For example, the crystalline polymorph was suspended in the solvent with stirring at 400 rpm at 37° C. for 1 h, 4 h and 24 h followed by filtration. The supernatant was measured by HPLC for concentration and the remaining solids were tested by XRPD.

[4] = Dynamic vapor sorption (DVS)
Description: TGA and DSC measurements indicated weight loss of 0.1% at 150° C. and an endothermic peak at 120.0° C.
Dynamic Vapor Sorption (DVS) was measured with a SMS DVS Intrinsic from Surface Measurement Systems (London, United Kingdom) using the following parameters: temperature: 25° C.; sample size: 10-20 mg; gas and flow rate: N2 and 200 mL/min; dm/dt: 0.002%/min; min. dm/dt stability duration: 10 min; max. equilibrium time: 180 min; relative humidity (RH) range: 0% RH-95% RH-0% RH; RH step size: 10%.

## Cc1nn(-c2nc(C3=CCC(C(F)(F)F)CC3)c(SC(C)C)s2)c(C(=O)O)c1-c1cccc(F)c1 (stereo not drawn) [Form 1, 4-(3-fluorophenyl)-1-(5-(isopropylthio)-4-(4-(trifluoromethyl)cyclohex-1-en-1-yl)thiazol-2-yl)-3-methyl-1H-pyrazole-5-carboxylic acid]
[1]
  physical and chemical stability: physically stable
[2]
  thermodynamic stability relationship between Form 1 and Form 5: more thermodynamically stable than Form 5
[3]; after solubility test in FaSSIF
  Form change by XRPD of remaining solids: one unknown peak was observed at about 31 2θ degrees
[3]; after solubility test in FeSSIF
  Form change by XRPD of remaining solids: no form change was observed
[3]; after solubility test in SGF
  Form change by XRPD of remaining solids: no form change was observed
[3]; after solubility test in water
  Form change by XRPD of remaining solids: no form change was observed
[3]; fasted state simulated intestinal fluid (FaSSIF), FaSSIF, 1 hr
  solubility at 1 h: 140 µg/mL (≈ 266 µM)
[3]; fasted state simulated intestinal fluid (FaSSIF), FaSSIF, 4 hr
  solubility at 4 h: 220 µg/mL (≈ 419 µM)
[3]; fasted state simulated intestinal fluid (FaSSIF), FaSSIF, 24 hr
  solubility at 24 h: 200 µg/mL (≈ 381 µM)
[3]; fed state simulated intestinal fluid (FeSSIF), FeSSIF, 1 hr
  solubility at 1 h: 170 µg/mL (≈ 323 µM)
[3]; fed state simulated intestinal fluid (FeSSIF), FeSSIF, 4 hr
  solubility at 4 h: 180 µg/mL (≈ 342 µM)
[3]; fed state simulated intestinal fluid (FeSSIF), FeSSIF, 24 hr
  solubility at 24 h: 140 µg/mL (≈ 266 µM)
[3]; simulated gastric fluid (SGF), simulated gastric fluid, SGF, 1 hr
  solubility at 1 h: 50 µg/mL (≈ 95.1 µM)
[3]; simulated gastric fluid (SGF), simulated gastric fluid, SGF, 4 hr
  solubility at 4 h: 30 µg/mL (≈ 57.1 µM)
[3]; simulated gastric fluid (SGF), simulated gastric fluid, SGF, 24 hr
  solubility at 24 h: 30 µg/mL (≈ 57.1 µM)
[3]; FaSSIF, 1 hr
  pH: 6.55
[3]; FaSSIF, 4 hr
  pH: 5.75
[3]; FaSSIF, 24 hr
  pH: 5.12
[3]; FeSSIF, 1 hr
  pH: 5.07
[3]; FeSSIF, 4 hr
  pH: 5.06
[3]; FeSSIF, 24 hr
  pH: 4.94
[3]; H2O, 1 hr
  pH: 7.00
[3]; H2O, 4 hr
  pH: 7.82
[3]; H2O, 24 hr
  pH: 6.68
[3]; SGF, 1 hr
  pH: 1.93
[3]; SGF, 4 hr
  pH: 1.75
[3]; SGF, 24 hr
  pH: 1.83
[3]; water, H2O, 1 hr
  solubility at 1 h: 490 µg/mL (≈ 932 µM)
[3]; water, H2O, 4 hr
  solubility at 4 h: 1300 µg/mL (≈ 2470 µM)
[3]; water, H2O, 24 hr
  solubility at 24 h: 1700 µg/mL (≈ 3230 µM)
[4]; 25° C./80% relative humidity
  water uptake (DVS): 0.6%
[4]; XRPD, FIG. 1E
  form change before and after DVS: no form change was observed
[4]; from DVS at 25° C./80% relative humidity
  hygroscopicity: slightly hygroscopic
